{"source": "patent US11672817B2", "about": "“Maltosyl-Isomaltooligosaccharides” (ISOThrive Inc., priority 2016, dated 2023)", "key": {"[1]": {"system": "Weissella viridescens NRRL B-1951", "assay": "W. viridescens culture absorbance (growth) with nisin", "assay_type": "cell-based", "set-up": "key to Corrected ABS 610rs: A600 minus background absorbance taken just after inoculation", "settings": "for 91516 ABS 610f: final absorbance, uncorrected", "procedure": "Purified nisin A and Z are commercially available and were acquired from Handary S. A. (Brussels Belgium). Certificates of analysis for each lot indicated purities of 95.2 and 99.6% for nisin A and Z, respectively.\n100 g De-Man, Rogosa and Sharpe (MRS) media was prepared in a 500 mL Erlenmeyer to contain 5.5% solids in deionized water (18.2 MS2, Hydro Service and Supplies, Gaithersburg, Md.). The media was autoclaved (121° C. 15 min), cooled, and inoculated with 1 mL (0.5 mL culture+0.5 mL glycerol, 40%; frozen at −78° C.) of Weissella viridescens NRRL B-1951 (test strain). The culture was incubated at 31° C. overnight (15 Hr).\nThe next day, stock solutions of either nisin A or Z were prepared in deionized water to contain 31.3 and 33.7 μg/g of each peptide.\n(§1) 100 g MRS media was prepared to contain 5.5% solids. Two sets (one set each for nisin A and nisin Z) of eight Hach-type tubes (Kimble Chase 45066-16100) were prepared. Within each set, in order was added 5.00, 4.95, 4.90, 4.75, 4.50, 4.00, 3.50 and 3.00 g MRS media. The tubes were sealed and autoclaved.\n(§2) To each tube was added, of the appropriate nisin stock, 0.00, 0.05, 0.10, 0.25, 0.50, 1.00, 1.50, and 2.00 g. Each tube was inoculated with 0.25 g of late-log W. viridescens NRRL B-1951 culture. The tubes were sealed and the absorbance at 600 nm was quickly measured (Hach DR900). The tubes were segregated by set and incubated at 31° C. overnight (15 Hr).\nEach tube was thoroughly mixed to suspend settled cells and the absorbance was measured again at 600 nm. The final absorbance values for each sample were corrected for their respective background (taken just after inoculation, scattered light from added cells). The corrected absorption values were a measure of W. viridescens growth. The corrected values were plotted against nisin concentration and minimum inhibiting concentration approximated via regression."}, "[2]": {"system": "Weissella viridescens NRRL B-1951", "assay": "HPLC of culture supernatants: consumption of glucose and production of organic acids with nisin", "assay_type": "cell-based", "settings": "for acetic acid in the fermentation media: MRS media originally contained 7% acetate", "procedure": "as §1, §2\nEach tube was sampled (1.5 mL conical polypropylene centrifuge tubes) and centrifuged at 10 kRPM for 10 minutes to remove and suspended cells. The resulting supernatants were filtered (0.2 μm nylon), diluted to 0.5% solids, and analyzed by high pressure liquid chromatography (HPLC, Agilent 1100, refractive index detector and BioRad Ainex HPX-87H column) for consumption of glucose and production of organic acids. The following table illustrates the concentration of sugars such as glucose and production of organic acids during the incubation.\nNote that the MRS media originally contained 7% acetate; therefore 7% should be subtracted from the values for acetate in the above table to ascertain the amount of acetate generated during the assay."}}, "note": "No end group written: not given here."}
{"substance": "nisin A (ITSISLCTPGCKTGALMGCNMKTATCHCSIHVSK; not fully specified (residues 2, 5, 33, bridges); also: lantibiotic (thioether rings, dehydrated residues not placed); UniProt P13068 24-57, looked up) [Purified nisin A, commercially available, acquired from Handary S. A; purity 95.2%; bacteriocin peptide]", "values": [{"measurement": "inhibition of bacterial growth", "setting": "[1]", "result": "can effectively inhibit"}, {"measurement": "91516 ABS 610f", "setting": "[1]; nisin A 0.33 μg/g (tube A2)", "result": 1.568}, {"measurement": "91516 ABS 610f", "setting": "[1]; nisin A 0.68 μg/g (tube A3)", "result": 1.531}, {"measurement": "91516 ABS 610f", "setting": "[1]; nisin A 1.38 μg/g (tube A4)", "result": 1.334}, {"measurement": "91516 ABS 610f", "setting": "[1]; nisin A 3.08 μg/g (tube A5)", "result": 0.911}, {"measurement": "91516 ABS 610f", "setting": "[1]; nisin A 5.97 μg/g (tube A6)", "result": 0.536}, {"measurement": "91516 ABS 610f", "setting": "[1]; nisin A 8.86 μg/g (tube A7)", "result": 0.403}, {"measurement": "91516 ABS 610f", "setting": "[1]; nisin A 11.87 μg/g (tube A8)", "result": 0.361}, {"measurement": "Corrected ABS 610rs", "setting": "[1]; nisin A 0.33 μg/g (tube A2)", "result": 1.106}, {"measurement": "Corrected ABS 610rs", "setting": "[1]; nisin A 0.68 μg/g (tube A3)", "result": 1.063}, {"measurement": "Corrected ABS 610rs", "setting": "[1]; nisin A 1.38 μg/g (tube A4)", "result": 0.868}, {"measurement": "Corrected ABS 610rs", "setting": "[1]; nisin A 3.08 μg/g (tube A5)", "result": 0.473}, {"measurement": "Corrected ABS 610rs", "setting": "[1]; nisin A 5.97 μg/g (tube A6)", "result": 0.116}, {"measurement": "Corrected ABS 610rs", "setting": "[1]; nisin A 8.86 μg/g (tube A7)", "result": 0.001}, {"measurement": "Corrected ABS 610rs", "setting": "[1]; nisin A 11.87 μg/g (tube A8)", "result": 0.001}, {"measurement": "Maltotriose in the fermentation media", "setting": "[2]; nisin A 0.33 μg/g (tube A2)", "result": 0.312, "unit": "%/brix"}, {"measurement": "ethanol in the fermentation media", "setting": "[2]; nisin A 0.33 μg/g (tube A2)", "result": 0.068, "unit": "%/brix"}, {"measurement": "formic acid in the fermentation media", "setting": "[2]; nisin A 0.33 μg/g (tube A2)", "result": 0.263, "unit": "%/brix"}, {"measurement": "fructose in the fermentation media", "setting": "[2]; nisin A 0.33 μg/g (tube A2)", "result": 0.000, "unit": "%/brix"}, {"measurement": "glucose in the fermentation media", "setting": "[2]; nisin A 0.33 μg/g (tube A2)", "result": 23.122, "unit": "%/brix"}, {"measurement": "glycerol in the fermentation media", "setting": "[2]; nisin A 0.33 μg/g (tube A2)", "result": 0.292, "unit": "%/brix"}, {"measurement": "lactic acid in the fermentation media", "setting": "[2]; nisin A 0.33 μg/g (tube A2)", "result": 6.884, "unit": "%/brix"}, {"measurement": "maltose in the fermentation media", "setting": "[2]; nisin A 0.33 μg/g (tube A2)", "result": 0.581, "unit": "%/brix"}, {"measurement": "acetic acid in the fermentation media", "setting": "[2]; nisin A 0.33 μg/g (tube A2)", "result": 7.967, "unit": "%/brix"}, {"measurement": "Maltotriose in the fermentation media", "setting": "[2]; nisin A 1.38 μg/g (tube A4)", "result": 0.298, "unit": "%/brix"}, {"measurement": "ethanol in the fermentation media", "setting": "[2]; nisin A 1.38 μg/g (tube A4)", "result": 0.062, "unit": "%/brix"}, {"measurement": "formic acid in the fermentation media", "setting": "[2]; nisin A 1.38 μg/g (tube A4)", "result": 0.282, "unit": "%/brix"}, {"measurement": "fructose in the fermentation media", "setting": "[2]; nisin A 1.38 μg/g (tube A4)", "result": 0.000, "unit": "%/brix"}, {"measurement": "glucose in the fermentation media", "setting": "[2]; nisin A 1.38 μg/g (tube A4)", "result": 24.138, "unit": "%/brix"}, {"measurement": "glycerol in the fermentation media", "setting": "[2]; nisin A 1.38 μg/g (tube A4)", "result": 0.319, "unit": "%/brix"}, {"measurement": "lactic acid in the fermentation media", "setting": "[2]; nisin A 1.38 μg/g (tube A4)", "result": 5.496, "unit": "%/brix"}, {"measurement": "maltose in the fermentation media", "setting": "[2]; nisin A 1.38 μg/g (tube A4)", "result": 0.815, "unit": "%/brix"}, {"measurement": "acetic acid in the fermentation media", "setting": "[2]; nisin A 1.38 μg/g (tube A4)", "result": 8.219, "unit": "%/brix"}, {"measurement": "Maltotriose in the fermentation media", "setting": "[2]; nisin A 3.08 μg/g (tube A5)", "result": 0.276, "unit": "%/brix"}, {"measurement": "ethanol in the fermentation media", "setting": "[2]; nisin A 3.08 μg/g (tube A5)", "result": 0.094, "unit": "%/brix"}, {"measurement": "formic acid in the fermentation media", "setting": "[2]; nisin A 3.08 μg/g (tube A5)", "result": 0.407, "unit": "%/brix"}, {"measurement": "fructose in the fermentation media", "setting": "[2]; nisin A 3.08 μg/g (tube A5)", "result": 0.000, "unit": "%/brix"}, {"measurement": "glucose in the fermentation media", "setting": "[2]; nisin A 3.08 μg/g (tube A5)", "result": 24.698, "unit": "%/brix"}, {"measurement": "glycerol in the fermentation media", "setting": "[2]; nisin A 3.08 μg/g (tube A5)", "result": 0.350, "unit": "%/brix"}, {"measurement": "lactic acid in the fermentation media", "setting": "[2]; nisin A 3.08 μg/g (tube A5)", "result": 4.672, "unit": "%/brix"}, {"measurement": "maltose in the fermentation media", "setting": "[2]; nisin A 3.08 μg/g (tube A5)", "result": 0.598, "unit": "%/brix"}, {"measurement": "acetic acid in the fermentation media", "setting": "[2]; nisin A 3.08 μg/g (tube A5)", "result": 8.296, "unit": "%/brix"}, {"measurement": "Maltotriose in the fermentation media", "setting": "[2]; nisin A 5.97 μg/g (tube A6)", "result": 0.288, "unit": "%/brix"}, {"measurement": "ethanol in the fermentation media", "setting": "[2]; nisin A 5.97 μg/g (tube A6)", "result": 0.057, "unit": "%/brix"}, {"measurement": "formic acid in the fermentation media", "setting": "[2]; nisin A 5.97 μg/g (tube A6)", "result": 0.280, "unit": "%/brix"}, {"measurement": "fructose in the fermentation media", "setting": "[2]; nisin A 5.97 μg/g (tube A6)", "result": 0.000, "unit": "%/brix"}, {"measurement": "glucose in the fermentation media", "setting": "[2]; nisin A 5.97 μg/g (tube A6)", "result": 25.304, "unit": "%/brix"}, {"measurement": "glycerol in the fermentation media", "setting": "[2]; nisin A 5.97 μg/g (tube A6)", "result": 0.328, "unit": "%/brix"}, {"measurement": "lactic acid in the fermentation media", "setting": "[2]; nisin A 5.97 μg/g (tube A6)", "result": 2.707, "unit": "%/brix"}, {"measurement": "maltose in the fermentation media", "setting": "[2]; nisin A 5.97 μg/g (tube A6)", "result": 0.941, "unit": "%/brix"}, {"measurement": "acetic acid in the fermentation media", "setting": "[2]; nisin A 5.97 μg/g (tube A6)", "result": 8.143, "unit": "%/brix"}, {"measurement": "Maltotriose in the fermentation media", "setting": "[2]; nisin A 8.86 μg/g (tube A7)", "result": 0.419, "unit": "%/brix"}, {"measurement": "ethanol in the fermentation media", "setting": "[2]; nisin A 8.86 μg/g (tube A7)", "result": 0.055, "unit": "%/brix"}, {"measurement": "formic acid in the fermentation media", "setting": "[2]; nisin A 8.86 μg/g (tube A7)", "result": 0.234, "unit": "%/brix"}, {"measurement": "fructose in the fermentation media", "setting": "[2]; nisin A 8.86 μg/g (tube A7)", "result": 0.000, "unit": "%/brix"}, {"measurement": "glucose in the fermentation media", "setting": "[2]; nisin A 8.86 μg/g (tube A7)", "result": 25.444, "unit": "%/brix"}, {"measurement": "glycerol in the fermentation media", "setting": "[2]; nisin A 8.86 μg/g (tube A7)", "result": 0.299, "unit": "%/brix"}, {"measurement": "lactic acid in the fermentation media", "setting": "[2]; nisin A 8.86 μg/g (tube A7)", "result": 1.521, "unit": "%/brix"}, {"measurement": "maltose in the fermentation media", "setting": "[2]; nisin A 8.86 μg/g (tube A7)", "result": 0.775, "unit": "%/brix"}, {"measurement": "acetic acid in the fermentation media", "setting": "[2]; nisin A 8.86 μg/g (tube A7)", "result": 7.899, "unit": "%/brix"}, {"measurement": "Maltotriose in the fermentation media", "setting": "[2]; nisin A 11.87 μg/g (tube A8)", "result": 0.305, "unit": "%/brix"}, {"measurement": "ethanol in the fermentation media", "setting": "[2]; nisin A 11.87 μg/g (tube A8)", "result": 0.071, "unit": "%/brix"}, {"measurement": "formic acid in the fermentation media", "setting": "[2]; nisin A 11.87 μg/g (tube A8)", "result": 0.233, "unit": "%/brix"}, {"measurement": "fructose in the fermentation media", "setting": "[2]; nisin A 11.87 μg/g (tube A8)", "result": 0.000, "unit": "%/brix"}, {"measurement": "glucose in the fermentation media", "setting": "[2]; nisin A 11.87 μg/g (tube A8)", "result": 25.537, "unit": "%/brix"}, {"measurement": "glycerol in the fermentation media", "setting": "[2]; nisin A 11.87 μg/g (tube A8)", "result": 0.301, "unit": "%/brix"}, {"measurement": "lactic acid in the fermentation media", "setting": "[2]; nisin A 11.87 μg/g (tube A8)", "result": 1.579, "unit": "%/brix"}, {"measurement": "maltose in the fermentation media", "setting": "[2]; nisin A 11.87 μg/g (tube A8)", "result": 0.739, "unit": "%/brix"}, {"measurement": "acetic acid in the fermentation media", "setting": "[2]; nisin A 11.87 μg/g (tube A8)", "result": 8.091, "unit": "%/brix"}]}
